Legend:
ECHCG (Barnyard grass) = experiment: Leaf treatment test, barnyard grass; assay type: in vivo, Echinochloa crus-galli Beauv. var. caudata Kitagawa; conditions: leaf treatment at three leaves, 14 days after treatment
Description: (§1) Seeds of rice, wheat, barley, corn, cotton, barnyard grass, common sorgum, large crabgrass and fall panicum were seeded at a pot with a surface area of 600 cm^2. […] 14 days after the treatment, the degree of damage to the plants was rated in % damage in comparison to the development of untreated control.

rice = experiment: Leaf treatment test, 4 leaves, rice (Table 7); assay type: in vivo, Oryza sativa L. cv. Dongjin
Description: as §1
(§2) Among the compounds of the formula (1), herbicidal activity of the compounds in table 5 is represented in the following table 6 and 7.

GOSHI (Cotton) = experiment: Leaf treatment test, cotton; assay type: in vivo, Gossypium; conditions: 14 days after treatment
Description: as §1

ORYSA (Rice) = experiment: Leaf treatment test, rice; assay type: in vivo, Oryza sativa L. cv. Dongjin; conditions: 14 days after treatment
Description: as §1

Barnyard grass = experiment: Leaf treatment test, 4 leaves, barnyard grass (Table 7); assay type: in vivo, Echinochloa crus-galli Beauv. var. caudata Kitagawa
Description: as §1, §2

SORBI (Common sorgum) = experiment: Leaf treatment test, common sorgum; assay type: in vivo, Andropogon sorghum; conditions: 14 days after treatment
Description: as §1

TRZAW (Wheat) = experiment: Leaf treatment test, wheat; assay type: in vivo, Triticum aestivum L.; conditions: 14 days after treatment
Description: as §1

PANDI (Fall panicum) = experiment: Leaf treatment test, fall panicum; assay type: in vivo, Panicum dichotomiflorum Michx; conditions: 14 days after treatment
Description: as §1

GLXMA (Soy bean) = experiment: Leaf treatment test, soy bean; assay type: in vivo, Glycine max (L.) MERR; conditions: 14 days after treatment
DIGSA (Large crabgrass) = experiment: Leaf treatment test, large crabgrass; assay type: in vivo, Digitaria Sanguinalis (L.) SCOP; conditions: 14 days after treatment
Description: as §1

ZEAMX (Corn) = experiment: Leaf treatment test, corn; assay type: in vivo, Zea mays L.; conditions: 14 days after treatment
Description: as §1

Row | SMILES | degree of damage to the plants (% damage) (ECHCG (Barnyard grass); treated amount 0.025 kg/ha) [%] | degree of damage to the plants (% damage) (ECHCG (Barnyard grass); treated amount 0.1 kg/ha) [%] | degree of damage to the plants (% damage) (ECHCG (Barnyard grass); treated amount 0.4 kg/ha) [%] | degree of damage to the plants (% damage) (GOSHI (Cotton); treated amount 0.025 kg/ha) [%] | degree of damage to the plants (% damage) (GOSHI (Cotton); treated amount 0.1 kg/ha) [%] | degree of damage to the plants (% damage) (GOSHI (Cotton); treated amount 0.4 kg/ha) [%] | degree of damage to the plants (% damage) (ORYSA (Rice); treated amount 0.025 kg/ha) [%] | degree of damage to the plants (% damage) (ORYSA (Rice); treated amount 0.1 kg/ha) [%] | degree of damage to the plants (% damage) (ORYSA (Rice); treated amount 0.4 kg/ha) [%] | degree of damage to the plants (% damage) (SORBI (Common sorgum); treated amount 0.025 kg/ha) [%] | degree of damage to the plants (% damage) (SORBI (Common sorgum); treated amount 0.1 kg/ha) [%] | degree of damage to the plants (% damage) (SORBI (Common sorgum); treated amount 0.4 kg/ha) [%] | degree of damage to the plants (% damage) (TRZAW (Wheat); treated amount 0.025 kg/ha) [%] | degree of damage to the plants (% damage) (TRZAW (Wheat); treated amount 0.1 kg/ha) [%] | degree of damage to the plants (% damage) (TRZAW (Wheat); treated amount 0.4 kg/ha) [%] | degree of damage to the plants (% damage) (PANDI (Fall panicum); treated amount 0.1 kg/ha) [%] | degree of damage to the plants (% damage) (PANDI (Fall panicum); treated amount 0.4 kg/ha) [%] | degree of damage to the plants (% damage) (GLXMA (Soy bean); treated amount 0.025 kg/ha) [%] | degree of damage to the plants (% damage) (GLXMA (Soy bean); treated amount 0.1 kg/ha) [%] | degree of damage to the plants (% damage) (GLXMA (Soy bean); treated amount 0.4 kg/ha) [%] | other results
1 | CC(Oc1ccc(Oc2nc3ccc(Cl)cc3o2)cc1)C(=O)N(C)c1ccccc1F (stereo not drawn) [Compound No. 1, 2-[4-(6-Chloro-2-benzoxazoyloxy)-phenoxy]propionic Acid-N-(2-fluorophenyl)-N-methylamide] | 90 | 100 | 100 | 0 | 0 | 0 | 0 | 0 | 0 | 100 | 100 | 100 | 0 | 0 | 0 | 100 | 100 | 0 | 0 | 20 | degree of damage to the plants (% damage) (rice; treated amount 0.016 kg/ha): 0%; degree of damage to the plants (% damage) (rice; treated amount 0.063 kg/ha): 0%; degree of damage to the plants (% damage) (rice; treated amount 0.25 kg/ha): 0%; degree of damage to the plants (% damage) (rice; treated amount 1.0 kg/ha): 0%; degree of damage to the plants (% damage) (Barnyard grass; treated amount 0.016 kg/ha): 75%; degree of damage to the plants (% damage) (Barnyard grass; treated amount 0.063 kg/ha): 100%; degree of damage to the plants (% damage) (Barnyard grass; treated amount 0.25 kg/ha): 100%; degree of damage to the plants (% damage) (Barnyard grass; treated amount 1.0 kg/ha): 100%; degree of damage to the plants (% damage) (PANDI (Fall panicum); treated amount 0.025 kg/ha): 100%; degree of damage to the plants (% damage) (DIGSA (Large crabgrass); treated amount 0.025 kg/ha): 100%; degree of damage to the plants (% damage) (DIGSA (Large crabgrass); treated amount 0.1 kg/ha): 100%; degree of damage to the plants (% damage) (DIGSA (Large crabgrass); treated amount 0.4 kg/ha): 100%; degree of damage to the plants (% damage) (ZEAMX (Corn); treated amount 0.025 kg/ha): 0%; degree of damage to the plants (% damage) (ZEAMX (Corn); treated amount 0.1 kg/ha): 70%; degree of damage to the plants (% damage) (ZEAMX (Corn); treated amount 0.4 kg/ha): 100%
2 | CC(Oc1ccc(Oc2nc3ccc(Cl)cc3o2)cc1)C(=O)N(C)c1ccc(Cl)cc1F (stereo not drawn) [Compound No. 8] | 0 | 0 | 70 | 0 | 0 | 0 | 0 | 0 | 0 | 0 | 70 | 100 | 0 | 0 | 0 | 0 | 100 | 0 | 0 | 0 | degree of damage to the plants (% damage) (PANDI (Fall panicum); treated amount 0.025 kg/ha): 0%; degree of damage to the plants (% damage) (DIGSA (Large crabgrass); treated amount 0.025 kg/ha): 30%; degree of damage to the plants (% damage) (DIGSA (Large crabgrass); treated amount 0.1 kg/ha): 95%; degree of damage to the plants (% damage) (DIGSA (Large crabgrass); treated amount 0.4 kg/ha): 100%; degree of damage to the plants (% damage) (ZEAMX (Corn); treated amount 0.025 kg/ha): 0%; degree of damage to the plants (% damage) (ZEAMX (Corn); treated amount 0.1 kg/ha): 0%; degree of damage to the plants (% damage) (ZEAMX (Corn); treated amount 0.4 kg/ha): 0%
3 | CC(Oc1ccc(Oc2nc3ccc(Cl)cc3o2)cc1)C(=O)N(C)c1cc(F)ccc1F (stereo not drawn) [Compound No. 9] | 70 | 80 | 80 | 0 | 0 | 0 | 0 | 0 | 20 | 90 | 100 | 100 | 0 | 0 | 0 | 100 | 100 | 0 | 0 | 0 | degree of damage to the plants (% damage) (PANDI (Fall panicum); treated amount 0.025 kg/ha): 90%; degree of damage to the plants (% damage) (DIGSA (Large crabgrass); treated amount 0.025 kg/ha): 100%; degree of damage to the plants (% damage) (DIGSA (Large crabgrass); treated amount 0.1 kg/ha): 100%; degree of damage to the plants (% damage) (DIGSA (Large crabgrass); treated amount 0.4 kg/ha): 100%; degree of damage to the plants (% damage) (ZEAMX (Corn); treated amount 0.025 kg/ha): 0%; degree of damage to the plants (% damage) (ZEAMX (Corn); treated amount 0.1 kg/ha): 0%; degree of damage to the plants (% damage) (ZEAMX (Corn); treated amount 0.4 kg/ha): 100%
4 | Cc1ccc(N(C)C(=O)C(C)Oc2ccc(Oc3nc4ccc(Cl)cc4o3)cc2)c(F)c1 (stereo not drawn) [Compound No. 10] | 0 | 0 | 80 | 0 | 0 | 0 | 0 | 0 | 0 | 30 | 60 | 100 | 0 | 0 | 0 | 0 | 70 | 0 | 0 | 0 | degree of damage to the plants (% damage) (PANDI (Fall panicum); treated amount 0.025 kg/ha): 0%; degree of damage to the plants (% damage) (DIGSA (Large crabgrass); treated amount 0.025 kg/ha): 70%; degree of damage to the plants (% damage) (DIGSA (Large crabgrass); treated amount 0.1 kg/ha): 95%; degree of damage to the plants (% damage) (DIGSA (Large crabgrass); treated amount 0.4 kg/ha): 100%; degree of damage to the plants (% damage) (ZEAMX (Corn); treated amount 0.025 kg/ha): 0%; degree of damage to the plants (% damage) (ZEAMX (Corn); treated amount 0.1 kg/ha): 0%; degree of damage to the plants (% damage) (ZEAMX (Corn); treated amount 0.4 kg/ha): 0%
5 | COc1ccc(N(C)C(=O)C(C)Oc2ccc(Oc3nc4ccc(Cl)cc4o3)cc2)c(F)c1 (stereo not drawn) [Compound No. 11] | 0 | 0 | 40 | 0 | 0 | 0 | 0 | 0 | 0 | 0 | 20 | 70 | 0 | 0 | 0 | 20 | 40 | 0 | 0 | 0 | degree of damage to the plants (% damage) (DIGSA (Large crabgrass); treated amount 0.025 kg/ha): 95%; degree of damage to the plants (% damage) (DIGSA (Large crabgrass); treated amount 0.1 kg/ha): 95%; degree of damage to the plants (% damage) (DIGSA (Large crabgrass); treated amount 0.4 kg/ha): 95%; degree of damage to the plants (% damage) (ZEAMX (Corn); treated amount 0.025 kg/ha): 0%; degree of damage to the plants (% damage) (ZEAMX (Corn); treated amount 0.1 kg/ha): 0%; degree of damage to the plants (% damage) (ZEAMX (Corn); treated amount 0.4 kg/ha): 0%
6 | CCOc1ccc(N(C)C(=O)C(C)Oc2ccc(Oc3nc4ccc(Cl)cc4o3)cc2)c(F)c1 (stereo not drawn) [Compound No. 12] | 0 | 0 | 30 | 0 | 0 | 0 | 0 | 0 | 00 | 0 | 0 | 30 | 0 | 0 | 0 | 0 | 0 | 0 | 0 | 0 | degree of damage to the plants (% damage) (PANDI (Fall panicum); treated amount 0.025 kg/ha): 0%; degree of damage to the plants (% damage) (DIGSA (Large crabgrass); treated amount 0.025 kg/ha): 80%; degree of damage to the plants (% damage) (DIGSA (Large crabgrass); treated amount 0.1 kg/ha): 100%; degree of damage to the plants (% damage) (DIGSA (Large crabgrass); treated amount 0.4 kg/ha): 100%; degree of damage to the plants (% damage) (ZEAMX (Corn); treated amount 0.025 kg/ha): 0%; degree of damage to the plants (% damage) (ZEAMX (Corn); treated amount 0.1 kg/ha): 0%; degree of damage to the plants (% damage) (ZEAMX (Corn); treated amount 0.4 kg/ha): 0%
7 | CCOC(=O)C(C)Oc1ccc(Oc2nc3ccc(Cl)cc3o2)cc1 (stereo not drawn) [control 2, Fenoxaprop-ethyl, reference compound] |  |  |  |  |  |  |  |  |  |  |  |  |  |  |  |  |  |  |  |  | degree of damage to the plants (% damage) (rice; treated amount 0.016 kg/ha): 20%; degree of damage to the plants (% damage) (rice; treated amount 0.063 kg/ha): 30%; degree of damage to the plants (% damage) (rice; treated amount 0.25 kg/ha): 70%; degree of damage to the plants (% damage) (rice; treated amount 1.0 kg/ha): 85%; degree of damage to the plants (% damage) (Barnyard grass; treated amount 0.016 kg/ha): 95%; degree of damage to the plants (% damage) (Barnyard grass; treated amount 0.063 kg/ha): 100%; degree of damage to the plants (% damage) (Barnyard grass; treated amount 0.25 kg/ha): 100%; degree of damage to the plants (% damage) (Barnyard grass; treated amount 1.0 kg/ha): 100%
